In patent US9073863B2, “Cyanoquinoline compounds having activity in correcting mutant-CFTR processing and increasing ion transport and uses thereof” (The Regents of the University of California, priority 2011, dated 2015):

Key:
Type in all cases: cell-based
ΔF508-CFTR [1] = target: T1, ΔF508-CFTR (Homo sapiens, UniProt P13569, DEL508-508); test: Corrector assay, YFP fluorescence plate reader iodide influx in ΔF508-CFTR expressing FRT cells
T1 construct: expressed in transfected cells; host or cells: Fischer rat thyroid (FRT) epithelial cells, stably transfected
T1 sequence (P13569 with tags, fused parts or gaps DEL508-508): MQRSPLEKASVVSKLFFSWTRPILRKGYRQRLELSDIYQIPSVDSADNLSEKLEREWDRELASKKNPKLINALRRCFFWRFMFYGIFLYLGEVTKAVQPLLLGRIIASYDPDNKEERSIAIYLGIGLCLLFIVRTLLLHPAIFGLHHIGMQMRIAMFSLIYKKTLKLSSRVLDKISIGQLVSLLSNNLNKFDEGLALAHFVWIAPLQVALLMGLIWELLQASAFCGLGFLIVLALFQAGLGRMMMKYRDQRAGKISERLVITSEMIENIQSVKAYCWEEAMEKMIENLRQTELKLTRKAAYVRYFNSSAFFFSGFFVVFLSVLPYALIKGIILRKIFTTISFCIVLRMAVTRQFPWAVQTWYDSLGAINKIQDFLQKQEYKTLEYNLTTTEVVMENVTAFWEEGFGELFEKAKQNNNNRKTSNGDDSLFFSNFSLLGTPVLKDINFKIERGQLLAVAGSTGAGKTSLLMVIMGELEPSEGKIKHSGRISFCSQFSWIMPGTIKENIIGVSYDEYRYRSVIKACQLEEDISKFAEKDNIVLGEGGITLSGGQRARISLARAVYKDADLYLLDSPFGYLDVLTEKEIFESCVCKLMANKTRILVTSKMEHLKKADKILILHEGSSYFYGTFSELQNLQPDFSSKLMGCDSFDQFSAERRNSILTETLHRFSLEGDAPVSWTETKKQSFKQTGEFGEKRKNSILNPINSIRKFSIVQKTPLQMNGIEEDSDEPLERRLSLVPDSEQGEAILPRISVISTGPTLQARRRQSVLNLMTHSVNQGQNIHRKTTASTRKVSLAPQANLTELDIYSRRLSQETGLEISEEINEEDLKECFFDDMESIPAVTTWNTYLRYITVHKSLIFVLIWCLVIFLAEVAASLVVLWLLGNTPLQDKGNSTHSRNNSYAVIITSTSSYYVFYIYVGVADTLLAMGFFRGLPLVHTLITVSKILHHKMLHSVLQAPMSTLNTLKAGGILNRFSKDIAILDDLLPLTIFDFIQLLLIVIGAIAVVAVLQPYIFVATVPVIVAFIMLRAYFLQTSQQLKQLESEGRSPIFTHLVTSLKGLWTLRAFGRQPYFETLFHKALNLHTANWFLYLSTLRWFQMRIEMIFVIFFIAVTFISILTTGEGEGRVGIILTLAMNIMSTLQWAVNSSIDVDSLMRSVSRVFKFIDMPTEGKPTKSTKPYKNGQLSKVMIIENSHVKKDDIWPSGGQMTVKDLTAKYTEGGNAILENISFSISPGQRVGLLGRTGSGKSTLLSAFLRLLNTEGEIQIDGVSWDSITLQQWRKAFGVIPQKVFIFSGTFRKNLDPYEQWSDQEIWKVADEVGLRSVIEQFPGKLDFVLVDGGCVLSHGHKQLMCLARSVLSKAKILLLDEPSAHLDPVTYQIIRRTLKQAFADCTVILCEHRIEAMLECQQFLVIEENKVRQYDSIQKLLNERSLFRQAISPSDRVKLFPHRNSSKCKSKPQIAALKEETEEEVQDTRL
Summary of the method: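 Corrector mode: cells treated 18–24 h at 37 °C with compound (25 μM screen, 0–25 μM dose-response), then 10 min forskolin 20 μM + genistein 50 μM. Potentiator mode: 27 °C-rescued cells given forskolin 20 μM + compound (0–25 or 0–50 μM) for 10 min. Initial iodide influx rate from exponential fit of YFP quenching, normalized to background-subtracted initial fluorescence.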

G551D-CFTR [2] = target: T2, G551D-CFTR (Homo sapiens, UniProt P13569, G551D); test: Short-circuit current in FRT cells expressing G551D-CFTR; conditions: in the presence of forskolin, vs genistein
T2 construct: expressed in transfected cells; host or cells: Fischer rat thyroid (FRT) epithelial cells, stably transfected
T2 sequence (P13569 whole entry G551D): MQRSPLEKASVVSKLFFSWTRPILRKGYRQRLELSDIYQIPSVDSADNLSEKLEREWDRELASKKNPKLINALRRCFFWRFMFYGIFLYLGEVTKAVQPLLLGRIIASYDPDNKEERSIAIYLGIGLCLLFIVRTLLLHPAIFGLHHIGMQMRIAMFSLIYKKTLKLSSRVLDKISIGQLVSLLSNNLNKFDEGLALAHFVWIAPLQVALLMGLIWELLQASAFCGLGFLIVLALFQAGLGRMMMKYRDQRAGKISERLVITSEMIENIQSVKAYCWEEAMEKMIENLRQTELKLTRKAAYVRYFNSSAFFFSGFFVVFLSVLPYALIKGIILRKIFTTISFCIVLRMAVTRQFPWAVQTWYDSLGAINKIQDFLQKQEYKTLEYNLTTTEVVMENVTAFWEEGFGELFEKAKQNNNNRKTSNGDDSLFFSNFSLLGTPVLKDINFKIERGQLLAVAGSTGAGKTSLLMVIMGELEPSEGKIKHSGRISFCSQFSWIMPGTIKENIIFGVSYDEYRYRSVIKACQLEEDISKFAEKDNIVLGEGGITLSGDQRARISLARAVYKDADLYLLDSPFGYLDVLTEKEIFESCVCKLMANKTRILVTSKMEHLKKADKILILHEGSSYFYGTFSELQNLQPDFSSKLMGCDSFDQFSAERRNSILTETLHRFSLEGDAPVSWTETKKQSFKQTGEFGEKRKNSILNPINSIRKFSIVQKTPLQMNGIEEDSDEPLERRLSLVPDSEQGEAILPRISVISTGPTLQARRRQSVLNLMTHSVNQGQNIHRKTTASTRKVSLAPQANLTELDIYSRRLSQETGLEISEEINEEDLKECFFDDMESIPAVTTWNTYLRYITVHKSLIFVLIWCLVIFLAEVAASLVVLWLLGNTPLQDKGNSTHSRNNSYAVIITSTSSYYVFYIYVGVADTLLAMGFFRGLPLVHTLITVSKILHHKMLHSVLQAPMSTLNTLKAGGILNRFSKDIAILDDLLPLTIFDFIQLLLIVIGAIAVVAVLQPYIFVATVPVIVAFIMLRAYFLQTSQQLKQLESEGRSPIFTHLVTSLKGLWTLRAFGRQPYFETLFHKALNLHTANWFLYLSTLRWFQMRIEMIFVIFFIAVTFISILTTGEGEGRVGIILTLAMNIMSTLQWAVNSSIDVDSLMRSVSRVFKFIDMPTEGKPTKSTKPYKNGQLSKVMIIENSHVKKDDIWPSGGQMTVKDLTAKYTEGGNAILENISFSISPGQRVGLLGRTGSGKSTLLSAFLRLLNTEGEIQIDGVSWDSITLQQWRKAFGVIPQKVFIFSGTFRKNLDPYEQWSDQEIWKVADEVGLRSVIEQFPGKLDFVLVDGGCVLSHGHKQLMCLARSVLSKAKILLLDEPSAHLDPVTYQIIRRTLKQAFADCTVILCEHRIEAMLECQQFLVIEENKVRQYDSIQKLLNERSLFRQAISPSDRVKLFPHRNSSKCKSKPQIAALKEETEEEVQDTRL
Experimental: (§1) Potentiator studies were also performed in FRT cells expressing G551D-CFTR, a CF-causing CFTR mutation with defective channel gating but not plasma membrane trafficking. […] Where indicated, genistein (100 μM) and CFTRinh-172 (10 μM) were added. Graphs are representative of 3 sets of measurements. […] Measurements were made in the presence of 20 μM forskolin.

G551D-CFTR [3] = target: T2, G551D-CFTR; test: Plate reader assay of G551D-CFTR chloride conductance in FRT cells; conditions: in the presence of 20 μM forskolin
Experimental: as §1
Representative fluorescence quenching curves (FIG. 6B (top)) shown with deduced Compound 22 and genistein concentration dependence (FIG. 6B (bottom), SEM, n=4). Fluorescence plate reader assays in FIG. 6B confirmed that Compound 22 activated G551D-CFTR in the presence of forskolin, with lower maximal efficacy than genistein.

ΔF508-CFTR [4] = target: T1, ΔF508-CFTR; test: CFTR immunoblot of ΔF508-CFTR expressing FRT cells; conditions: 24 h at 37° C.
Experimental: CFTR Immunoblot. DF508-CFTR expressing FRT cells grown on 6-well plates were treated with Corr-4a ([…]), Compound 22 […] or negative control at 37° C. for 24 h. After treatment, cells were washed with PBS and lysed in 20 mM Hepes (pH 7), 150 mM NaCl, 1 mM EGTA and 1% Igepal containing Complete Protease Inhibitor Cocktail (Roche). After pre-clearing, lysates were subjected to SDS-PAGE and analyzed by immunoblot. Proteins were immunodetected using a mouse monoclonal anti-CFTR antibody (M3A7, Millipore) followed by HRP-conjugated anti-mouse IgG, and visualized by chemiluminescence (ECL Plus, Amersham).
The action of Compound 22 as corrector of defective ΔF508-CFTR cellular processing was verified by CFTR immunoblot analysis (FIG. 4C). Wildtype CFTR was detected as a strong band at 170 kDa (band C), corresponding to complex glycosylated CFTR. […] Band B, which corresponds to core-glycosylated ΔF508-CFTR, was also seen.

iodide influx after incubation at 27° C. (ΔF508-CFTR [1]; Compound 22 (20 µM) or Corr-4a (10 µM), 24 h, 27° C., vs low-temperature rescue control): substantially increased iodide influx
iodide influx after incubation at 37° C. (ΔF508-CFTR [1]; Compound 22 (20 µM) or Corr-4a (10 µM), 24 h, 37° C., with genistein): increased iodide influx
additivity of corrector action with Corr-4a (iodide influx) (ΔF508-CFTR [1]; maximal concentrations of Compound 22 and Corr-4a, alone or in combination): significant additivity
potentiator action on G551D-CFTR chloride current (G551D-CFTR [2]): weak potentiator
maximum efficacy of G551D-CFTR activation (G551D-CFTR [3]): lower than that of genistein
EC50 (G551D-CFTR [3]; read-out: Apparent EC50 for activation of G551-CFTR): ~5 µM
complex glycosylated CFTR (band C) in immunoblot (ΔF508-CFTR [4]): band C was visualized
SMILES: COc1cccc(C(=O)NCCNc2nc3cc(C)cc(C)c3cc2C#N)c1 [Compound 22, N-(2-((3-Cyano-5,7-dimethylquinolin-2-yl)amino)ethyl)-3-methoxybenzamide]
corrector and potentiator activities, in words (ΔF508-CFTR [1]; concentration-dependence in corrector and potentiator I− influx assays (FIG. 2, FIG. 7)): both corrector and potentiator activities
